Entries after “also recorded” stand apart in the source; their conditions may differ.
Assays:
[1] = test system: defensive burying model of active anxiety-like behavior; assay: Defensive burying test (Study 1); format: in vivo, rat
Excerpt: The defensive burying test was used to assess effects of MPZP on anxiety-like behavior [Treit et al., Pharmacol. Biochem. Behay. (1981) 15:619-626; De Boer et al., Eur. J. Pharmacol. (2003) 463:145-161]. This model has been validated by anxiolytic and anxiogenic compounds, which decrease and increase defensive burying behavior, respectively [Korte et al., Physiol. Behay. (1994) 56:115-120; De Boer et al., Eur. J. Pharmacol. (2003) 463:145-161]. For two consecutive days before defensive burying testing, animals were acclimated to the testing apparatus by placing them for 45 minutes in the testing cage (a polycarbonate rat housing cage with 2 cm of bedding covering the floor and a small hole centered on a long dimension of the cage 1 inch above the bedding to accommodate the shock probe on the subsequent test day). On the day of testing, animals were brought into the anteroom at least 2 hours before testing began. Subjects were subcutaneously pretreated with MPZP (0, 5, 20 mg/kg) in a between-subjects design 1 hour before their test session. For testing, animals were placed individually in the test cage, and a shock probe connected to a Coulbourn precision shocker (model E13-01, Coulbourn Instruments, Allentown, Pa.) delivered one 1.5 mA shock (lasting <1 s) upon contact. As soon as the animal was shocked (verified by a startle response), the shock current was deactivated, and the 10 minute test began. Contact with the shock probe under these conditions results in the rat displacing bedding material with treading-like movements of the forepaws and shoveling movements of the head, often directed toward the shock probe. Latency to the first display of burying behavior and time spent burying (in four 2.5 minute bins throughout the 10 minute test) were assessed [Korte et al., Physiol. Behay. (1994) 56:115-120]. […] The effect of MPZP on defensive burying behavior (latency to first bury and burying time) were analyzed by analysis of variance (ANOVA), in which Dose was a between-subjects factor and Time bin was a repeated measure for duration of burying.

[2] = test system: animal model of alcohol dependence; assay: Operant alcohol and water self-administration in alcohol vapor-dependent and nondependent rats (Study 2); format: in vivo, rat; conditions: for alcohol self-administration (g/kg intake): 0, 5, 10, 20 mg/kg
Excerpt: The effect of MPZP on drinking behavior was studied in an established animal model of alcohol dependence. […] (2006) 26:11324-11332; see also Roberts et al., Alcohol Clin. Exp. Res. (1996) 20:1289-1298; Overstreet et al., Alcohol Clin. Exp. Res. (2002) 26:1259-1268; Rimondini et al., FASEB J. (2002) 16:27-35; Valdez et al., Alcohol Clin. Exp. Res. (2002) 26:1494-1501 for related models].
Animals were permitted to self-administer alcohol or water orally in a concurrent, two-lever, free-choice contingency. A continuous reinforcement (fixed ratio-1) schedule was used in which each lever press was reinforced. Animals acquired alcohol self-administration using a variation of the previously described saccharin fading free-choice operant conditioning protocol [Samson et al., Alcohol Clin. Exp. Res. (1986) 10:436-442].
The present procedure culminates in pharmacologically relevant levels of alcohol self-administration, as defined by blood alcohol levels (BALs), in nondependent animals with limited access to alcohol over a 6-week period [Roberts et al., Alcohol Clin. Exp. Res. (1999) 23:1151-1157]. The modified procedure in the present study utilized a sweetened solution (“supersac”) containing 3% glucose and 0.125% saccharin (Sigma, St. Louis, Mo.) instead of water restriction and 0.2% saccharin to initiate and maintain operant responding [Funk et al., J. Neurosci. (2006) 26:11324-11332].
Animals respond for the sweetened solution within 1-2 training sessions, making water restriction unnecessary. Operant sessions during training were conducted 5 days per week between 0900 and 1500 (lights on at 0600). Operant sessions were 30 minutes in duration, except during the initial days of training in which sessions lasted up to 2 hours to permit acquisition of responding for the sweetened solution. Alcohol (10% w/v) then was added to the sweetened solution, and once mean responding stabilized (around one week) the glucose was removed from the solution, leaving only 0.125% saccharin and 10% w/v ethanol.
Animals then were maintained on 10% w/v ethanol for at least 3 weeks, and stable responders (±25% across three consecutive sessions) were evenly divided into two groups matched for baseline responding and exposed to intermittent ethanol vapors (dependent) or air (nondependent) as described below. A total of 16 rats (dependent, n=8; nondependent, n=8) were used for this experiment.
The self-administration system comprised test chambers (Coulbourn Instruments, Allentown, Pa.) contained within wooden sound-attenuated ventilated cubicles. The test chambers were equipped with two retractable levers located 4 cm above the grid floor and 4.5 cm to either side of a small stainless steel receptacle containing two drinking cups. […] Tap water was delivered to one dish, and the experimental solution (e.g., sweetened solution or alcohol) was delivered to the other dish. Fluid delivery and recording of operant self-administration were controlled by a computer. Lever presses were not recorded during the 0.5 second inter-response time-out interval when solution was being delivered.
A recent modification of the alcohol dependence model was made to reflect the natural progression of alcohol dependence in which alcohol exposure occurs in a series of extended exposures followed by periods of withdrawal [O′Dell et al., Alcohol Clin. Exp. Res. (2004) 28:1676-1682]. Chronic exposure to intermittent alcohol vapor exposure elicits even higher alcohol self-administration than continuous vapor (Ibid.), and the intermittent procedure therefore was used to induce dependence in trained animals in the present study. Vapors were delivered on a 14 hours on/10 hours off schedule for 4 weeks before post-vapor testing began.
Beginning 4 weeks after the onset of vapor exposure, post-vapor alcohol self-administration testing was conducted 2 times per week during acute withdrawal (6-8 hours after cessation of daily vapor exposure). […]

[3] = test system: binge drinking of sweetened alcohol; conditions: Ji et al. 2007, in review; cited from earlier work

## COCCN(CCOC)c1cc(C)nc2c(-c3ccc(OC)cc3C)c(C)nn12 [MPZP, N,N-bis(2-methoxyethyl)-3-(4-methoxy-2-methylphenyl)-2,5-dimethyl-pyrazolo[1,5-a]pyrimidin-7-amine]
[1]; 0, 5, 20 mg/kg s.c., systemic pretreatment
  total duration of defensive burying behavior: dose-dependently reduced; also recorded: reduced defensive burying time
[1]; 20 mg/kg s.c., 1 hour before test, vs vehicle
  duration of burying across the 10-minute observation period: significantly reduced
[1]; 5 and 20 mg/kg s.c., 1 hour before test, vs vehicle
  latency to start burying: increased the latency to start burying
[2]; Rattus norvegicus, sc, dependent animals, acute withdrawal (6-8 hours), s.c. 1 hour before 30 minute session, read-out: ED50, reduction of alcohol self-administration (sigmoidal dose-response fit)
  ED50: 10.7 mg/kg
[2]; dependent animals, 20 mg/kg vs vehicle
  alcohol self-administration (g/kg intake): dose-dependently reduced; also recorded: significantly reduced
[2]; dependent animals, 5 mg/kg
  alcohol responses: 72±14
[2]; dependent animals, 10 mg/kg
  alcohol responses: 70±7
[2]; dependent animals, 20 mg/kg
  alcohol responses: 47±7
[2]; dependent or nondependent animals
  water self-administration (responses): no effect
[2]; nondependent animals
  alcohol self-administration (g/kg intake): not nondependent animals; also recorded: no effect
[2]; nondependent animals, 5 mg/kg
  alcohol responses: 37±5
[2]; nondependent animals, 10 mg/kg
  alcohol responses: 32±5
[2]; nondependent animals, 20 mg/kg
  alcohol responses: 33±4
[3]
  nondependent binge drinking of sweetened alcohol: had no effect

Reference: US20100249138A1, “MPZP: A SMALL MOLECULE CORTICOTROPIN-RELEASING FACTOR TYPE 1 RECEPTOR (CRF1) ANTOGONIST” (priority 2007, published 2010)
